Source: patent US10556888B2, “Pyrazole compounds or salts thereof, preparation methods therefor, herbicidal compositions and use thereof” (QINGDAO KINGAGROOT CHEMICAL COMPOUNDS CO., LTD, priority 2015, dated 2020)

Key:
[1] = test system: Monocotyledonous and dicotyledonous weed; test: Post-emergence test experiment, weed control effect (Table 2); assay type: in vivo; parameters: key to weed control effect, Setaria viridis (level) / weed control effect, Rorippa indica (level) / weed control effect, Abutilon theophrasti (level) / weed control effect, Echinochloa crus-galli (level) / weed control effect, Digitaria sanguinalis (level): Level 10: completely dead; Level 9: above 90% growth inhibition rate; Level 8: above 80% growth inhibition rate; Level 7: above 70% growth inhibition rate; Level 6: above 60% growth inhibition rate; Level 5: above 50% growth inhibition rate; Level 4: above 30% growth inhibition rate; Level 3: above 20% growth inhibition rate; Level 2: above 10% growth inhibition rate; Level 1: above 1-10% growth inhibition rate; Level 0: no effect; conditions: 30 g/ha, 3 weeks after spraying, greenhouse
Outline: (§1)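 Weed and crop seeds (wheat, corn, rice, soybean, cotton, oilseed, millet, sorghum) grown in soil in greenhouse; sprayed at 2-3 leaf stage, 2-3 weeks after sowing, with compound in acetone/Tween 80/water. Effects assessed after 3 weeks further greenhouse culture.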

[2] = test system: main crop (wheat, corn, rice, soybean, cotton, oilseed, millet and sorghum); test: Post-emergence test experiment, main crops (Table 2); assay type: in vivo; parameters: key: Level 10: completely dead; Level 9: above 90% growth inhibition rate; Level 8: above 80% growth inhibition rate; Level 7: above 70% growth inhibition rate; Level 6: above 60% growth inhibition rate; Level 5: above 50% growth inhibition rate; Level 4: above 30% growth inhibition rate; Level 3: above 20% growth inhibition rate; Level 2: above 10% growth inhibition rate; Level 1: above 1-10% growth inhibition rate; Level 0: no effect; conditions: 30 g/ha, 3 weeks after spraying, greenhouse
Outline: as §1

Row | SMILES | weed control effect, Abutilon theophrasti (level) [1] | weed control effect, Bidens pilosa (level) [1] | weed control effect, Digitaria sanguinalis (level) [1] | weed control effect, Echinochloa crus-galli (level) [1] | weed control effect, Rorippa indica (level) [1] | weed control effect, Setaria viridis (level) [1] | effect on crop, corn (level) [2] | effect on crop, rice (level) [2] | effect on crop, wheat (level) [2]
1 | C#CCOCc1c(S(C)(=O)=O)ccc(C(=O)c2c(C3CC3)nn(C)c2OC(=O)c2cn(C)nc2C)c1Cl [Compound 47] | 7 (Level 7: above 70% growth inhibition rate) | 7 (Level 7: above 70% growth inhibition rate) | 7 (Level 7: above 70% growth inhibition rate) | 10 | 10 | 9 (Level 9: above 90% growth inhibition rate) | 0 | 3 (Level 3: above 20% growth inhibition rate) | 0
2 | Cc1nn(C)cc1C(=O)Oc1c(C(=O)c2ccc(S(C)(=O)=O)c(COCC(F)(F)C(F)F)c2Cl)c(C2CC2)nn1C [Compound 48] | 7 (Level 7: above 70% growth inhibition rate) | 7 (Level 7: above 70% growth inhibition rate) | 7 (Level 7: above 70% growth inhibition rate) | 10 | 10 | 9 (Level 9: above 90% growth inhibition rate) | 0 | 3 (Level 3: above 20% growth inhibition rate) | 0
3 | Cc1nn(C)cc1C(=O)Oc1c(C(=O)c2ccc(S(C)(=O)=O)c(COCC(F)(F)F)c2Cl)c(C2CC2)nn1C [Compound 49] | 7 (Level 7: above 70% growth inhibition rate) | 7 (Level 7: above 70% growth inhibition rate) | 7 (Level 7: above 70% growth inhibition rate) | 10 | 10 | 9 (Level 9: above 90% growth inhibition rate) | 0 | 3 (Level 3: above 20% growth inhibition rate) | 0
4 | Cc1nn(C)cc1C(=O)Oc1c(C(=O)c2ccc(S(C)(=O)=O)c(COCC(F)F)c2Cl)c(C2CC2)nn1C [Compound 50] | 6 (Level 6: above 60% growth inhibition rate) | 7 (Level 7: above 70% growth inhibition rate) | 8 (Level 8: above 80% growth inhibition rate) | 10 | 10 | 9 (Level 9: above 90% growth inhibition rate) | 0 | 3 (Level 3: above 20% growth inhibition rate) | 0
5 | COCCCOCc1c(S(C)(=O)=O)ccc(C(=O)c2c(C3CC3)nn(C)c2OC(=O)c2cn(C)nc2C)c1Cl [Compound 52] | 7 (Level 7: above 70% growth inhibition rate) | 7 (Level 7: above 70% growth inhibition rate) | 7 (Level 7: above 70% growth inhibition rate) | 10 | 10 | 6 (Level 6: above 60% growth inhibition rate) | 1 (Level 1: above 1-10% growth inhibition rate) | 3 (Level 3: above 20% growth inhibition rate) | 0
6 | COCCCOCc1c(S(C)(=O)=O)ccc(C(=O)c2cnn(C)c2OC(=O)c2cn(C)nc2C)c1Cl [Compound 53] | 7 (Level 7: above 70% growth inhibition rate) | 7 (Level 7: above 70% growth inhibition rate) | 8 (Level 8: above 80% growth inhibition rate) | 10 | 10 | 6 (Level 6: above 60% growth inhibition rate) | 1 (Level 1: above 1-10% growth inhibition rate) | 3 (Level 3: above 20% growth inhibition rate) | 0
7 | CCOc1c(C(=O)Oc2c(C(=O)c3ccc(S(C)(=O)=O)c(COCC(F)(F)F)c3Cl)cnn2C)cnn1C [Compound 54] | 7 (Level 7: above 70% growth inhibition rate) | 7 (Level 7: above 70% growth inhibition rate) | 7 (Level 7: above 70% growth inhibition rate) | 10 | 10 | 10 | 1 (Level 1: above 1-10% growth inhibition rate) | 3 (Level 3: above 20% growth inhibition rate) | 0
8 | CCOc1c(C(=O)Oc2c(C(=O)c3ccc(S(C)(=O)=O)c(COCC(F)(F)F)c3Cl)c(C)nn2C)cnn1C [Compound 55] | 7 (Level 7: above 70% growth inhibition rate) | 7 (Level 7: above 70% growth inhibition rate) | 10 | 10 | 10 | 10 | 2 (Level 2: above 10% growth inhibition rate) | 3 (Level 3: above 20% growth inhibition rate) | 0
9 | C#CCOCc1c(S(C)(=O)=O)ccc(C(=O)c2c(C)nn(C)c2OC(=O)c2cnn(C)c2OCC)c1Cl [Compound 56] | 7 (Level 7: above 70% growth inhibition rate) | 7 (Level 7: above 70% growth inhibition rate) | 7 (Level 7: above 70% growth inhibition rate) | 10 | 10 | 9 (Level 9: above 90% growth inhibition rate) | 0 | 3 (Level 3: above 20% growth inhibition rate) | 0
10 | CCOc1c(C(=O)Oc2c(C(=O)c3ccc(S(C)(=O)=O)c(COCC(F)F)c3Cl)cnn2C)cnn1C [Compound 57] | 7 (Level 7: above 70% growth inhibition rate) | 7 (Level 7: above 70% growth inhibition rate) | 7 (Level 7: above 70% growth inhibition rate) | 10 | 10 | 9 (Level 9: above 90% growth inhibition rate) | 0 | 3 (Level 3: above 20% growth inhibition rate) | 0
11 | C#CCOCc1c(S(C)(=O)=O)ccc(C(=O)c2cnn(C)c2OC(=O)c2cnn(C)c2OCC)c1Cl [Compound 58] | 7 (Level 7: above 70% growth inhibition rate) | 7 (Level 7: above 70% growth inhibition rate) | 7 (Level 7: above 70% growth inhibition rate) | 10 | 10 | 9 (Level 9: above 90% growth inhibition rate) | 0 | 3 (Level 3: above 20% growth inhibition rate) | 0
12 | CCOCCOCc1c(S(C)(=O)=O)ccc(C(=O)c2cnn(C)c2OC(=O)c2cnn(C)c2OCC)c1Cl [Compound 59] | 7 (Level 7: above 70% growth inhibition rate) | 7 (Level 7: above 70% growth inhibition rate) | 7 (Level 7: above 70% growth inhibition rate) | 8 (Level 8: above 80% growth inhibition rate) | 10 | 6 (Level 6: above 60% growth inhibition rate) | 0 | 3 (Level 3: above 20% growth inhibition rate) | 0
13 | C#CCOCc1c(S(C)(=O)=O)ccc(C(=O)c2cnn(C)c2OC(=O)c2cnn(C)c2)c1Cl [Compound 61] | 7 (Level 7: above 70% growth inhibition rate) | 7 (Level 7: above 70% growth inhibition rate) | 7 (Level 7: above 70% growth inhibition rate) | 10 | 10 | 5 (Level 5: above 50% growth inhibition rate) | 0 | 3 (Level 3: above 20% growth inhibition rate) | 0
